Reference: patent US6632817B2, “Fluoromethoximino compounds” (priority 1997, dated 2003)

Columns and labels:
Plasmopara viticola = experiment: Plasmopara test (grapevine)/protective; type: in vivo; conditions: protective, application rate 100 g/ha, evaluation 6 days after inoculation; for pest or weed control at 100 g/ha: Plasmopara viticola, 144 h, read-out: Efficacy in %
Protocol: Plasmopara Test (Grapevine)/Protective
(§1) Solvent: 47 parts by weight of acetone
(§2) Emulsifier: 3 parts by weight of alkylaryl polyglycol ether
(§3) To produce a suitable preparation of active compound, 1 part by weight of active compound is mixed with the stated amounts of solvent and emulsifier, and the concentrate is diluted with water to the desired concentration.
To test for protective activity, young plants are sprayed with the preparation of active compound at the stated application rate. After the spray coating has dried on, the plants are inoculated with an aqueous spore suspension of Plasmopara viticola and then remain in an incubation cabin at approximately 20° C. and 100% relative atmospheric humidity for 1 day. The plants are subsequently placed in a greenhouse at approximately 21° C. and approximately 90% relative atmospheric humidity for 5 days. The plants are then moistened and placed in an incubation cabin for 1 day.
Evaluation is carried out 6 days after the inoculation. 0% means an efficacy which corresponds to that of the control, whereas an efficacy of 100% means that no infection is observed.

Venturia inaequalis = experiment: Venturia test (apple)/protective; type: in vivo; conditions: protective, evaluation 12 days after inoculation; for Efficacy in % / pest or weed control at 10 g/ha: application rate 10 g/ha
Protocol: Venturia Test (Apple)/Protective
as §1, §2, §3
To test for protective activity, young plants are sprayed with the preparation of active compound at the stated application rate. After the spray coating has dried on, the plants are inoculated with an aqueous conidia suspension of the causative organism of apple scab Venturia inaequalis and then remain in an incubation cabin at approximately 20° C. and 100% relative atmospheric humidity for 1 day.
The plants are then placed in a greenhouse at approximately 21° C. and a relative atmospheric humidity of approximately 90%.
Evaluation is carried out 12 days after the inoculation. 0% means an efficacy which corresponds to that of the control, whereas an efficacy of 100% means that no infection is observed.

Puccinia recondita = experiment: Puccinia test (wheat)/protective; type: in vivo; conditions: protective, application rate 250 g/ha, evaluation 10 days after inoculation; for pest or weed control at 250 g/ha: Puccinia recondita, 240 h, read-out: Efficacy in %
Protocol: Puccinia Test (Wheat)/Protective
Solvent: 25 parts by weight of N,N-dimethylacetamide
Emulsifier: 0.6 part by weight of alkylaryl polyglycol ether
as §3
To test for protective activity, young plants are sprayed with the preparation of active compound at the stated application rate. After the spray coating has dried on, the plants are sprayed with a conidia suspension of Puccinia recondita. The plants remain in an incubation cabin at 20° C. and 100% relative atmospheric humidity for 48 hours.
The plants are then placed in a greenhouse at a temperature of approximately 20° C. and a relative atmospheric humidity of 80% to promote the development of rust pustules.
Evaluation is carried out 10 days after the inoculation. 0% means an efficacy which corresponds to that of the control, whereas an efficacy of 100% means that no infection is observed.

[1] = logP determination by HPLC (EEC Directive 79/831 Annex V. A8); type: physicochemical; conditions: HPLC gradient method, acetonitrile/0.1% aqueous phosphoric acid
Protocol: The logP values are determined in accordance with EEC Directive 79/831 Annex V. A8 by HPLC (gradient method, acetonitrile/0.1% aqueous phosphoric acid).

[2] = Venturia inaequalis, 288 h, read-out: Efficacy in %

For `CNC(=O)/C(=N\OCF)c1ccccc1Oc1ncnc(Oc2ccccc2OC(F)F)c1F` [drawing 56], the Efficacy in % (Plasmopara viticola) was 96%.

`CNC(=O)C(=NOCF)c1ccccc1Oc1nc(-c2ccccc2)ns1` [drawing 70] showed an Efficacy in % (Venturia inaequalis) of 100%.

`CNC(=O)/C(=N\OCF)c1ccccc1Oc1ncnc(Oc2ccccc2C#N)c1F` [drawing 60] gave an Efficacy in % (Plasmopara viticola) of 96%.

With `CNC(=O)/C(=N\OCF)c1ccccc1Oc1nc(-c2cccc(OC(F)(F)F)c2)ns1` [drawing 54] the Efficacy in % (Plasmopara viticola) was 100%.

`CNC(=O)/C(=N\OCF)c1ccccc1Oc1ncnc(Oc2cccc(C)c2Cl)c1F` [drawing 67] gave an Efficacy in % (Plasmopara viticola) of 100%.

For `COC(=O)C(=NOCF)c1ccccc1Oc1ncnc(Oc2ccccc2Cl)c1F` [drawing 50], the Efficacy in % (Plasmopara viticola) was 98%.

With `CNC(=O)/C(=N\OCF)c1ccccc1Oc1ncnc(Oc2ccccc2Cl)c1F` [drawing 64] the pest or weed control at 100 g/ha (Plasmopara viticola) was 100%.

`CNC(=O)/C(=N\OCF)c1ccccc1Oc1ncnc(Oc2cccc(C)c2C)c1F` [drawing 59] showed an Efficacy in % (Plasmopara viticola) of 100%.

Compound `CNC(=O)/C(=N\OCF)c1ccccc1Oc1ncnc(Oc2ccccc2OC(F)F)c1F` [drawing 87] has an Efficacy in % (Puccinia recondita) of 100%.

With `CNC(=O)/C(=N\OCF)c1ccccc1Oc1nc(-c2ccc(OC(F)F)cc2)ns1` [drawing 83] the Efficacy in % (Venturia inaequalis) was 99%.

For `COC(=O)C(=NOCF)c1ccccc1O` [Example (II-1), methyl 2-fluoromethoxyimino-2-(2-hydroxyphenyl)-acetate], the chromatographic logP [1] was 1.6.

For `CNC(=O)/C(=N\OCF)c1ccccc1Oc1ncnc(Oc2ccccc2C#N)c1F` [drawing 91], the Efficacy in % (Puccinia recondita) was 100%.

For `CNC(=O)/C(=N\OCF)c1ccccc1Oc1nc(-c2ccc(C(F)(F)F)cc2)ns1` [Example 19], the chromatographic logP [1] was 3.7, the pest or weed control at 100 g/ha (Plasmopara viticola) was ≥ 98% and the pest or weed control at 10 g/ha (Venturia inaequalis; [2]) was ≥ 99%. The pest or weed control at 250 g/ha (Puccinia recondita) was ≥ 80%.

In the case of `COC(=O)C(=NOCF)c1ccccc1Oc1ncnc(Oc2ccccc2Cl)c1F` [drawing 68], the Efficacy in % (Venturia inaequalis) is reported as 100%.

`CNC(=O)/C(=N\OCF)c1ccccc1Oc1nc(-c2cccc(OC(F)F)c2)ns1` [drawing 65] gave a pest or weed control at 100 g/ha (Plasmopara viticola) of 99%.

`CNC(=O)/C(=N\OCF)c1ccccc1Oc1nc(-c2cccc(OC(F)(F)F)c2)ns1` [drawing 77] gave an Efficacy in % (Venturia inaequalis) of 100%.

For `CNC(=O)/C(=N\OCF)c1ccccc1Oc1ncnc(Oc2ccccc2C)c1F` [Example 11], the chromatographic logP [1] was 3, the pest or weed control at 100 g/ha (Plasmopara viticola) was ≥ 98% and the pest or weed control at 10 g/ha (Venturia inaequalis; [2]) was ≥ 99%. For the same compound, the pest or weed control at 250 g/ha (Puccinia recondita) was ≥ 80%.

Compound `CNC(=O)/C(=N\OCF)c1ccccc1Oc1nc(-c2ccc(C(F)(F)F)cc2)ns1` [drawing 93] has an Efficacy in % (Puccinia recondita) of 100%.

`CNC(=O)C(NOCF)c1ccccc1Oc1ncnc(Oc2ccccc2)c1F` (stereo not shown) [drawing 88] showed a pest or weed control at 250 g/ha (Puccinia recondita) of 100%.

`CNC(=O)C(NOCF)c1ccccc1Oc1ncnc(Oc2ccccc2[N+](=O)[O-])c1F` (stereo not shown) [drawing 89] showed a pest or weed control at 250 g/ha (Puccinia recondita) of 100%.

Compound `CNC(=O)C(=NOCF)c1ccccc1Oc1nc(-c2ccccc2)ns1` [drawing 55] has an Efficacy in % (Plasmopara viticola) of 100%.

With `CNC(=O)/C(=N\OCF)c1ccccc1Oc1nc(-c2ccc(OC(F)(F)F)cc2)ns1` [drawing 63] the Efficacy in % (Plasmopara viticola) was 100%.

With `CNC(=O)C(=NOCF)c1ccccc1Oc1ncnc(Oc2ccccc2Cl)c1F` [drawing 69] the Efficacy in % (Venturia inaequalis) was 99%.

For `CNC(=O)C(NOCF)c1ccccc1Oc1ncnc(Oc2ccccc2[N+](=O)[O-])c1F` (stereo not shown) [drawing 58], the pest or weed control at 100 g/ha (Plasmopara viticola) was 96%.

In the case of `CNC(=O)/C(=N\OCF)c1ccccc1Oc1ncnc(Oc2cccc(Cl)c2C)c1F` [drawing 76], the Efficacy in % (Venturia inaequalis) is reported as 98%.

`CNC(=O)C(=NOCF)c1ccccc1O` [Example (II-2), 2-fluoromethoxyimino-2-(2-hydroxyphenyl)-N-methylacetamide] gave a chromatographic logP [1] of 1.1.

Compound `CNC(=O)/C(=N\OCF)c1ccccc1Oc1nc(-c2cccc(C(F)(F)F)c2)ns1` [drawing 62] has an Efficacy in % (Plasmopara viticola) of 100%.

For `COC(=O)C(=NOCF)c1ccccc1OC1CCCCO1` (stereo not shown) [Example (VI-1), methyl 2-fluoromethoxyimino-2-[2-(tetrahydropyran-2-yloxy)-phenyl]-acetate], the chromatographic logP [1] was 2.8.

In the case of `CNC(=O)/C(=N\OCF)c1ccccc1Oc1nc(-c2ccc(OC(F)(F)F)cc2)ns1` [drawing 80], the Efficacy in % (Venturia inaequalis) is reported as 100%.

For `CNC(=O)C(=NOCF)c1ccccc1Oc1nc(-c2ccccc2)ns1` [Example 3, 2-fluoromethoxyimino-N-methyl-2-[2-(3-phenyl-[1,2,4]thiadiazol-5-yloxy)-phenyl]-acetamide], the chromatographic logP [1] was 2.9, the pest or weed control at 100 g/ha (Plasmopara viticola) was ≥ 98% and the pest or weed control at 10 g/ha (Venturia inaequalis; [2]) was ≥ 99%.

Compound `CNC(=O)/C(=N\OCF)c1ccccc1Oc1ncnc(Oc2cccc(Cl)c2C)c1F` [drawing 53] has an Efficacy in % (Plasmopara viticola) of 100%.

`CNC(=O)/C(=N\OCF)c1ccccc1Oc1ncnc(Oc2ccccc2OC(F)F)c1F` [drawing 72] gave an Efficacy in % (Venturia inaequalis) of 95%.

Compound `CNC(=O)/C(=N\OCF)c1ccccc1Oc1ncnc(Oc2ccccc2Cl)c1F` [drawing 81] has a pest or weed control at 10 g/ha (Venturia inaequalis; [2]) of 100%.

Work on `CNC(=O)C(=NOCF)c1ccccc1Oc1ncnc(Oc2ccccc2Cl)c1F` [drawing 85] yielded an Efficacy in % (Puccinia recondita) of 100%.

For `CNC(=O)/C(=N\OCF)c1ccccc1Oc1nc(-c2cccc(C(F)(F)F)c2)ns1` [drawing 94], the Efficacy in % (Puccinia recondita) was 100%.

With `CNC(=O)/C(=N\OCF)c1ccccc1Oc1ncnc(Oc2cccc(C)c2Cl)c1F` [Example 27] the chromatographic logP [1] was 3.32 and the pest or weed control at 100 g/ha (Plasmopara viticola) was ≥ 98%.

`CNC(=O)C(NOCF)c1ccccc1Oc1ncnc(Oc2cccc(Cl)c2Cl)c1F` (stereo not shown) [drawing 71] gave a pest or weed control at 10 g/ha (Venturia inaequalis; [2]) of 96%.

With `CNC(=O)/C(=N\OCF)c1ccccc1Oc1nc(-c2cccc(OC(F)(F)F)c2)ns1` [Example 23] the chromatographic logP [1] was 3.8, the pest or weed control at 100 g/ha (Plasmopara viticola) was ≥ 98% and the pest or weed control at 10 g/ha (Venturia inaequalis; [2]) was ≥ 99%.

`CNC(=O)/C(=N\OCF)c1ccccc1Oc1nc(-c2ccc(C(F)(F)F)cc2)ns1` [drawing 78] gave a pest or weed control at 19 g/ha (Venturia inaequalis; Venturia inaequalis, 288 h, application rate 19 g/ha, read-out: Efficacy in %) of 100%.

With `CNC(=O)/C(=N\OCF)c1ccccc1Oc1nc(-c2ccc(OC(F)F)cc2)ns1` [drawing 66] the Efficacy in % (Plasmopara viticola) was 100%.

In the case of `CNC(=O)/C(=N\OCF)c1ccccc1Oc1ncnc(Oc2cccc(C)c2C)c1F` [drawing 74], the Efficacy in % (Venturia inaequalis) is reported as 100%.

With `CNC(=O)/C(=N\OCF)c1ccccc1Oc1nc(-c2ccc(C(F)(F)F)cc2)ns1` [drawing 61] the Efficacy in % (Plasmopara viticola) was 100%.

For `CNC(=O)C(NOCF)c1ccccc1Oc1ncnc(Oc2cccc(Cl)c2Cl)c1F` (stereo not shown) [drawing 86], the pest or weed control at 250 g/ha (Puccinia recondita) was 100%.

With `CNC(=O)/C(=N\OCF)c1ccccc1Oc1nc(-c2ccc(OC(F)(F)F)cc2)ns1` [drawing 95] the Efficacy in % (Puccinia recondita) was 100%.

For `CNC(=O)C(NOCF)c1ccccc1Oc1ncnc(Oc2ccccc2)c1F` (stereo not shown) [drawing 57], the pest or weed control at 100 g/ha (Plasmopara viticola) was 100%.

`CNC(=O)C(=NOCF)c1ccccc1Oc1ncnc(Oc2ccccc2Cl)c1F` [drawing 51] gave an Efficacy in % (Plasmopara viticola) of 100%.

For `CNC(=O)/C(=N\OCF)c1ccccc1Oc1ncnc(Oc2cccc(C)c2C)c1F` [drawing 90], the Efficacy in % (Puccinia recondita) was 100%.

Compound `CNC(=O)/C(=N\OCF)c1ccccc1Oc1nc(-c2cccc(C(F)(F)F)c2)ns1` [drawing 79] has an Efficacy in % (Venturia inaequalis) of 100%.

With `CNC(=O)/C(=N\OCF)c1ccccc1Oc1nc(-c2cccc(OC(F)F)c2)ns1` [drawing 82] the pest or weed control at 10 g/ha (Venturia inaequalis; [2]) was 100%.

`CNC(=O)/C(=N\OCF)c1ccccc1Oc1ncnc(Oc2ccccc2C)c1F` [drawing 52] showed an Efficacy in % (Plasmopara viticola) of 100%.

For `COC(=O)C(=NOCF)c1ccccc1Oc1ncnc(Oc2ccccc2Cl)c1F` [drawing 84], the Efficacy in % (Puccinia recondita) was 80%.

Compound `CNC(=O)/C(=N\OCF)c1ccccc1Oc1nc(-c2ccc(OC(F)F)cc2)ns1` [drawing 97] has an Efficacy in % (Puccinia recondita) of 100%.

Compound `CNC(=O)/C(=N\OCF)c1ccccc1Oc1ncnc(Oc2ccccc2C)c1F` [drawing 75] has an Efficacy in % (Venturia inaequalis) of 100%.

`CNC(=O)/C(=N\OCF)c1ccccc1Oc1ncnc(Oc2ccccc2Cl)c1F` [drawing 96] showed a pest or weed control at 250 g/ha (Puccinia recondita) of 100%.

Work on `CNC(=O)C(NOCF)c1ccccc1Oc1ncnc(Oc2ccccc2)c1F` (stereo not shown) [drawing 73] yielded a pest or weed control at 10 g/ha (Venturia inaequalis; [2]) of 96%.

Compound `CNC(=O)/C(=N\OCF)c1ccccc1Oc1ncnc(Oc2ccccc2C)c1F` [drawing 92] has an Efficacy in % (Puccinia recondita) of 100%.
